Measured values reported in publication PMC5841300, “Magnolol restores the activity of meropenem against NDM-1-producing Escherichia coli by inhibiting the activity of metallo-beta-lactamase” (Cell Death Discovery, 2018).

Tests used:
[1] = molecular target: T1, New Delhi metallo-β-lactamase-1 (NDM-1) (Escherichia coli, UniProt E5KIY2, K211A); test: fluorescence quenching (binding constant KA)
T1 construct: gene blaNDM-1; NDM-1 without the signal peptide, amino-terminal histidine tag

[2] = molecular target: T2, New Delhi metallo-β-lactamase-1 (NDM-1) (Escherichia coli, UniProt E5KIY2, G219A); test: fluorescence quenching (binding constant KA)
T2 construct: gene blaNDM-1; NDM-1 without the signal peptide, amino-terminal histidine tag

[3] = molecular target: T3, New Delhi metallo-β-lactamase-1 (NDM-1) (Escherichia coli, UniProt E5KIY2); test: purified recombinant enzyme, nitrocefin hydrolysis assay; also fluorescence quenching, KA […] ([…] L/mol); format: biochemical
T3 construct: gene blaNDM-1; NDM-1 without the signal peptide, amino-terminal histidine tag

SMILES: C=CCc1ccc(O)c(-c2cc(CC=C)ccc2O)c1 [magnolol]
- Kd [1]: 20.8 µM
- Kd [2]: 18.2 µM
- IC50 [3]: 24.3 µM
